According to patent publication US9328090B2, “Arylethynyl derivatives” (Hoffmann-La Roche Inc., priority 2012, dated 2016):

Target: T1, human mGlu5a receptor (Homo sapiens, UniProt P41594)
T1 construct: expressed in transfected cells; host or cells: HEK-293 (monoclonal, stably transfected)
Experiment: Intracellular Ca2+ mobilization assay (mGlu5 PAM)
Type: cell-based
Conditions: for EC50: HEK-293 cells stably transfected with human mGlu5a, L-glutamate added at EC20; for Efficacy [%]: maximal response in % of the maximal stimulatory effect obtained with saturating L-glutamate
Procedure: A monoclonal HEK-293 cell line stably transfected with a cDNA encoding for the human mGlu5a receptor was generated; for the work with mGlu5 Positive Allosteric Modulators (PAMs), a cell line with low receptor expression levels and low constitutive receptor activity was selected to allow the differentiation of agonistic versus PAM activity. Cells were cultured according to standard protocols (Freshney, 2000) in Dulbecco's Modified Eagle Medium with high glucose supplemented with 1 mM glutamine, 10% (vol/vol) heat-inactivated bovine calf serum, Penicillin/Streptomycin, 50 μg/ml hygromycin and 15 μg/ml blasticidin (all cell culture reagents and antibiotics from Invitrogen, Basel, Switzerland).
About 24 hrs before an experiment, 5×10^4 cells/well were seeded in poly-D-lysine coated, black/clear-bottomed 96-well plates. The cells were loaded with 2.5 μM Fluo-4AM in loading buffer (1×HBSS, 20 mM HEPES) for 1 hr at 37° C. and washed five times with loading buffer. The cells were transferred into a Functional Drug Screening System 7000 (Hamamatsu, Paris, France), and 11 half logarithmic serial dilutions of test compound at 37° C. were added and the cells were incubated for 10-30 min. with on-line recording of fluorescence. Following this pre-incubation step, the agonist L-glutamate was added to the cells at a concentration corresponding to EC20 (typically around 80 μM) with on-line recording of fluorescence; in order to account for day-to-day variations in the responsiveness of cells, the EC20 of glutamate was determined immediately ahead of each experiment by recording of a full dose-response curve of glutamate.
Responses were measured as peak increase in fluorescence minus basal (i.e. fluorescence without addition of L-glutamate), normalized to the maximal stimulatory effect obtained with saturating concentrations of L-glutamate. Graphs were plotted with the % maximal stimulatory using XLfit, a curve fitting program that iteratively plots the data using Levenburg Marquardt algorithm. The single site competition analysis equation used was y=A+((B−A)/(1+((x/C)D))), where y is the % maximal stimulatory effect, A is the minimum y, B is the maximum y, C is the EC50, x is the log 10 of the concentration of the competing compound and D is the slope of the curve (the Hill Coefficient). From these curves the EC50 (concentration at which half maximal stimulation was achieved), the Hill coefficient as well as the maximal response in % of the maximal stimulatory effect obtained with saturating concentrations of L-glutamate were calculated.
A depression of the signal observed after addition of the EC20 concentration of L-glutamate was indicative of an inhibitory activity of the test compound.

T1 sequence (P41594 21-1180 isoform P41594-2 limits assumed): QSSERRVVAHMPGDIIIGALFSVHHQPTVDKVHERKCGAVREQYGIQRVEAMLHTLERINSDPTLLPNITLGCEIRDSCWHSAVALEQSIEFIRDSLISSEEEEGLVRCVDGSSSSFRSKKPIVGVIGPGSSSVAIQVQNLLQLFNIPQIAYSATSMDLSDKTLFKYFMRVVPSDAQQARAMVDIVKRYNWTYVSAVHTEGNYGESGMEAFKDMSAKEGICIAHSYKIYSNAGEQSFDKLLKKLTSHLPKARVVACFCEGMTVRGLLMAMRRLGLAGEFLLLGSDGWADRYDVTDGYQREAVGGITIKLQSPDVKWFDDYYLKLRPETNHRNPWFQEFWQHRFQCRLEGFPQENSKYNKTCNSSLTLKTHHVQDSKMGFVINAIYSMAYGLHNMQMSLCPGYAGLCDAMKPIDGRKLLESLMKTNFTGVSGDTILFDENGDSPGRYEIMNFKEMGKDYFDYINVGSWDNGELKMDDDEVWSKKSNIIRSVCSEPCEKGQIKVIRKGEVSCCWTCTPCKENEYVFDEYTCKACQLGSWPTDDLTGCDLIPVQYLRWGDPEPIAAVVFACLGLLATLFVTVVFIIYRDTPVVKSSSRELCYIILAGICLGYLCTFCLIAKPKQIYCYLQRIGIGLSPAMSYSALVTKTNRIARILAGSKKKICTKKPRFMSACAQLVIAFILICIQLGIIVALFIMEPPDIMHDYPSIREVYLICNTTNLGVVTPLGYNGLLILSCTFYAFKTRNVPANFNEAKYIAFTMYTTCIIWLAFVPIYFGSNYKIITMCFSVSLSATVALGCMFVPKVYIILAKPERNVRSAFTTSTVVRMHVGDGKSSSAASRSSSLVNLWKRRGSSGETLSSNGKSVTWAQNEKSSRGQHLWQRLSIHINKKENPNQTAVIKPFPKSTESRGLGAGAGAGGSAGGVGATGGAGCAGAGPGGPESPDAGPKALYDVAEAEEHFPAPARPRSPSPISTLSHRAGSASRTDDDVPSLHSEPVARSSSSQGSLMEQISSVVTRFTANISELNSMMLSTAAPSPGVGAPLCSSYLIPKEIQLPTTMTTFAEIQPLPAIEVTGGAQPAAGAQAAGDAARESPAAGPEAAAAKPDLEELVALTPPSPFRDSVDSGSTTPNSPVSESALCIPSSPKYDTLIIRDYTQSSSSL

| SMILES | EC50 | Efficacy [%] |
| --- | --- | --- |
| O=C1C[C@H]2CCC[C@H]2N1c1ccc(C#Cc2ccccc2)cn1 [Example 1, (3aR,6aR)-1-(5-(phenylethynyl)pyridin-2-yl)hexahydrocyclopenta[b]pyrrol-2(1H)-one] | 10 nM | 45% |
| O=C1C[C@H]2CCC[C@H]2N1c1ccc(C#Cc2cccc(F)c2)cn1 [Example 2, (3aR,6aR)-1-(5-((3-Fluorophenyl)ethynyl)pyridin-2-yl)hexahydrocyclopenta[b]pyrrol-2(1H)-one] | 10 nM | 48% |
| O=C1C[C@H]2CCC[C@H]2N1c1ccc(C#Cc2ccc(F)cc2)cn1 [Example 3, (3aR,6aR)-1-(5-((4-Fluorophenyl)ethynyl)pyridin-2-yl)hexahydrocyclopenta[b]pyrrol-2(1H)-one] | 10 nM | 44% |
| O=C1C[C@H]2CCC[C@H]2N1c1ccc(C#Cc2cc(F)ccc2F)cn1 [Example 4, (3aR,6aR)-1-(5-((2,5-Difluorophenyl)ethynyl)pyridin-2-yl)hexahydrocyclopenta[b]pyrrol-2(1H)-one] | 8 nM | 19% |
| CC1(C)CC(=O)N(c2ccc(C#Cc3ccccc3)cn2)C1 [Ref. 1 Ex. 13, reference compound] |  | 129% |
| CC1(C)CC(=O)N(c2ccc(C#Cc3cccc(F)c3)cn2)C1 [Ref. 1 Ex. 40, reference compound] |  | 100% |
| O=C1CC2(CCCC2)CN1c1ccc(C#Cc2ccccc2)cn1 [Ref. 1 Ex. 59, reference compound] |  | 81% |
